According to PMC12308805, “Ultrahigh-Throughput Virtual Screening Strategies against PPI Targets: A Case Study of STAT Inhibitors” (Journal of Chemical Information and Modeling, 2025):
Where “and” joins values, the source holds several entries; their conditions need not be identical. Equal values may be shown once. Blank lines part the entries; values can stand above or below the molecule they belong to.

Assays:
STAT5b = test system: STAT5b; set-up: method as in literature; settings: training set for retrospective virtual screening with 6MBW; known actives for STAT5b found in the literature; ref literature; cited from earlier work
[1] = target: T1, STAT5b (136–703) SH2 domain (Homo sapiens, UniProt P51692); test: Fluorescence polarization assay (FP-assay), STAT5b SH2 domain; assay type: binding; set-up: key to identified as active in FP-assay: A compound was identified as active, if it had a mean IC50 value under 100 μM; settings: for IC50: FP-assay, mean IC50, at least three biological replicates
T1 sequence (P51692 136-703): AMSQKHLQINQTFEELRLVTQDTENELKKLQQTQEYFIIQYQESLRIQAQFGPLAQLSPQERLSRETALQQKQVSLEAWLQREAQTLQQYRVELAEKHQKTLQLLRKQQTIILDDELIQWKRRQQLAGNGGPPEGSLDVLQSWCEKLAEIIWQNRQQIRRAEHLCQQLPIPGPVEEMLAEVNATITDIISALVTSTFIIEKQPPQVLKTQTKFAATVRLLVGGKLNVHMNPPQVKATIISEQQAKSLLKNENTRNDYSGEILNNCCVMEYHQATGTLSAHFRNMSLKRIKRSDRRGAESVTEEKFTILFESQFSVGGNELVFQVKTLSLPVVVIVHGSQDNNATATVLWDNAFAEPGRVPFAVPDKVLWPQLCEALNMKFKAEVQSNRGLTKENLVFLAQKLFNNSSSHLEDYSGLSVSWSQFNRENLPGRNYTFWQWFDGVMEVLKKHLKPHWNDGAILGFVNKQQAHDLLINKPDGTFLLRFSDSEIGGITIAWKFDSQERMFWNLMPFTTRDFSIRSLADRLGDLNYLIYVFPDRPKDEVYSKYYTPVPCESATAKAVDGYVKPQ
Protocol: (§1) The respective protocols for the expression and purification of the STAT3 SH2 and STAT5b SH2 domains were published in our recent works. Fluorescence polarization assays (FP-assays) were performed on a Molecular Devices SpectraMax iD5Multimode Microplate Reader (San Jose, CA, USA) using Greiner black 384-well flat-bottom nonbinding microplates with 40 μL final well volumes. The fluorescent peptides (5-FAM-G(pTyr)-LPQTV-NH2 and 5-FAM-G(pTyr)-LVLDKW-NH2, purchased from GenScript Biotech Ltd., Piscataway, NJ, USA), as well as the proteins, were diluted with a buffer containing 50 mM NaCl, 10 mM HEPES (4-(2-hydroxyethyl)-1-piperazineethanesulfonic acid), 1 mM EDTA (ethylenediaminetetraacetic acid), 2 mM DTT (dithiothreitol), and 0.1% Triton X-100, pH 7.5. For STAT3 (127–770), the final concentration of the protein was 200 nM, and the fluorescent peptide (5-FAM-G(pTyr)-LPQTV-NH2) was added at a final concentration of 5 nM; for STAT5b (136–703), the final concentration of the protein was 500 nM, and the fluorescent peptide (5-FAM-G(pTyr)-LVLDKW-NH2) was added at a final concentration of 10 nM. The wells were treated with varying concentrations of inhibitors (1250 to 0.11 μM final concentrations). The final DMSO content was 2.5%. After mixing, the protein and inhibitors were incubated at room temperature for 30 min, then the fluorescent peptide was added, and the plate was incubated for another 20 min prior to the fluorescence readout (extinction wavelength: 475 nm, emission wavelength: 520 nm). The measurements were carried out in at least three biological replicates. Fluorescence polarization was calculated from the perpendicular and parallel fluorescence intensities and then plotted against concentration. The IC50 values were determined after fitting quadratic dose–response curves on the data points in GraphPad Prism 8.0.1. […] All plotted curves and data points for the hit compounds are included in Section 2 of the Supporting Information.

[2] = target: T2, STAT3 (127–770) SH2 domain (Homo sapiens, UniProt P40763); test: Fluorescence polarization assay (FP-assay), STAT3 SH2 domain; assay type: binding; set-up: key to identified as active in FP-assay: A compound was identified as active, if it had a mean IC50 value under 100 μM; settings: for IC50: FP-assay, mean IC50, at least three biological replicates
T2 construct: For STAT3 (127–770), the final concentration of the protein was 200 nM; made in house
T2 sequence (P40763 127-770): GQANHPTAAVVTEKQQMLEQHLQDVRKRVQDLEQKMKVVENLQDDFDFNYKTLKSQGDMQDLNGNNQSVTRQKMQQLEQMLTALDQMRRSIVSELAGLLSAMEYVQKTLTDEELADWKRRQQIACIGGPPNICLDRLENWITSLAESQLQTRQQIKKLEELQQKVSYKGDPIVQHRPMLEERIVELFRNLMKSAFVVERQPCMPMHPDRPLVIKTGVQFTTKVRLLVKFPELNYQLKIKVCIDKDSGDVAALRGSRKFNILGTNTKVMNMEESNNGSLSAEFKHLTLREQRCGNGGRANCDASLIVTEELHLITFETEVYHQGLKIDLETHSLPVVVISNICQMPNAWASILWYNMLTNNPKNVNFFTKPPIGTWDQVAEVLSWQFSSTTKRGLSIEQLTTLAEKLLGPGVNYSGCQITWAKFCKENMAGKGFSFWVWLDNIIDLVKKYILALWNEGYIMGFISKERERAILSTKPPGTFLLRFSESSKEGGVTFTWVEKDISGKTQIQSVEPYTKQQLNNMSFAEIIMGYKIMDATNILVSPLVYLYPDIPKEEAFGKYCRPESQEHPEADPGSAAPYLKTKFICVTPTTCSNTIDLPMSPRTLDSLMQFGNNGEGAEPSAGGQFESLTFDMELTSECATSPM
Protocol: as §1

[3] = target: T3, STAT5b N-terminal domain (NTD) (Homo sapiens, UniProt P51692); test: Isothermal titration calorimetry (ITC), STAT5b-NTD; assay type: binding; set-up: key to identified as active in ITC: A compound was identified as active, if it had a mean Kd value under 100 μM; settings: for Kd: ITC, 25 °C, 1X PBS pH 7.4, 8% DMSO, single-site fit
T3 sequence (P51692 1-126 limits assumed): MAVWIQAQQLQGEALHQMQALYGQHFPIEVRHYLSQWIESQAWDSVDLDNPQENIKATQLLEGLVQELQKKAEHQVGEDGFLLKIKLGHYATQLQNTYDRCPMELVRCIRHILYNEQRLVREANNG
Protocol: The detailed protocol for the expression and purification of the STAT5b-NTD was described in our recent work. ITC measurements were carried out on a MicroCal PEAQ-ITC microcalorimeter (Malvern Instruments, Worcestershire, UK). All protein and ligand solutions were composed of 1X PBS (pH 7.4) buffer containing 8% (V/V) DMSO to avoid buffer mismatch. Protein solutions containing 25-26 μM protein were prepared in batches prior to measurements by diluting 676 μM stock solution (stored in 1X PBS (pH 7.4) buffer at -80 °C) warmed to room temperature with 1X PBS (pH 7.4) buffer solution and an appropriate amount of DMSO. Ligand solutions were prepared by first dissolving the ligands in DMSO to acquire a 50 mM stock solution, which was then diluted to 1 mM (in the case of […]_M2 ligand) or 4 mM (all other ligands) concentration using 1X PBS (pH 7.4) buffer solution. Appropriate amounts of DMSO were also added to the solution containing 1 mM ligand to yield a 8% (V/V) DMSO content. The protein solution was loaded into the sample cell in a volume of 200 μL and was titrated at 25 °C with the ligand solution at a stirring speed of 1000 rpm and a reference heat rate of 10 μcal/s in a high feedback mode. Used initial delay was 120 s, and the injection program was composed of an initial first injection with 0.5 μL over 2 s, followed by 18 injections with 2 μL over 4 s. Injections were performed every 180 s. Blank measurements consisting of titrating the ligand into the buffer (1X PBS (pH 7.4) containing 8% (V/V) DMSO) were carried out to correct for the heat of dilution for all ligands using the appropriate injection program. Data were analyzed using the MicroCal PEAQ-ITC analysis software (version 1.22) by fitting a single-site binding curve. […] Binding curves of the identified active compounds are included in Supporting Information Figures S3-S5.

SMILES: CN(CC(=O)N(Cc1ccc(C2CCCCC2)cc1)c1ccc(C(=O)O)c(O)c1)S(=O)(=O)c1ccc(-c2ccccc2)cc1 [BP-1-107, CN(CC(=O)N(Cc1ccc(C2CCCCC2)cc1)c1ccc(C(=O)O)c(O)c1)S(=O)(=O)c1ccc(-c2ccccc2)cc1]
Type (Active / decoy) (STAT5b): Active

SMILES: Cc1cc(C)c(S(=O)(=O)N(C)CC(=O)N(Cc2ccc(C3CCCCC3)cc2)c2ccc(C(=O)O)c(O)c2)c(C)c1 [BP-1-108, Cc1cc(C)c(S(=O)(=O)N(C)CC(=O)N(Cc2ccc(C3CCCCC3)cc2)c2ccc(C(=O)O)c(O)c2)c(C)c1]
Type (Active / decoy) (STAT5b): Active

SMILES: CC(C)(C)c1cc(CN(C(=O)CN(Cc2ccc(Cl)cc2)S(=O)(=O)c2c(F)c(F)c(F)c(F)c2F)c2ccc(C(=O)O)c(O)c2)cc(C(C)(C)C)c1 [13a, CC(C)(C)c1cc(CN(C(=O)CN(Cc2ccc(Cl)cc2)S(=O)(=O)c2c(F)c(F)c(F)c(F)c2F)c2ccc(C(=O)O)c(O)c2)cc(C(C)(C)C)c1]
Type (Active / decoy) (STAT5b): Active

SMILES: NCCN(Cc1csc(COc2ccccc2)n1)C[C@@H](O)CO [S3_E8, OC[C@H](O)CN(CC[NH2])Cc1csc(n1)COc2ccccc2]
identified as weakly binding in FP-assay [2]: weakly binding (A weakly binding compound (mean IC50 value higher than 100 μM))
IC50 [2]: 454 ± 181 µM

SMILES: NC(=O)C1CCN(C(=O)c2ccccc2NC(=O)c2cccc(NC(=O)CCn3ccnc3)c2)CC1 [S3_E3, NC(=O)C1CCN(CC1)C(=O)c2ccccc2NC(=O)c3cccc(c3)NC(=O)CCn4cc[n]c4]
identified as weakly binding in FP-assay [2]: weakly binding (A weakly binding compound (mean IC50 value higher than 100 μM))
IC50 [2]: 472 ± 112 µM

SMILES: C[C@@H](NC(=O)[C@@H]1CCCC[C@@H]1C(=O)O)c1ccncc1 [S3_M2, c1cnccc1[C@@H](C)NC(=O)[C@@H]2CCCC[C@@H]2C([OH])=O]
identified as active in FP-assay [2]: active
IC50 [2]: 80 ± 34.3 µM

SMILES: Cc1c(O)ccc2c(CC(=O)NCC(=O)NCC(=O)O)cc(=O)oc12 [S3_O10, Cc1c(O)ccc2c(CC(=O)NCC(=O)NCC(=O)[OH])cc(=O)oc12]
identified as active in FP-assay [2]: active
IC50 [2]: 99.9 ± 55.6 µM

SMILES: Nc1ccc(-n2ccc(C(=O)O)n2)nc1 [S3_B12, Nc1ccc(nc1)n1ccc(n1)C(=O)O]
identified as weakly binding in FP-assay [2]: weakly binding (A weakly binding compound (mean IC50 value higher than 100 μM))
IC50 [2]: > 100 µM and 104 µM

SMILES: NC(=O)CSc1ccccc1C(=O)NC[C@H](O)COc1ccc2c(c1)OCO2 [S3_E4, NC(=O)CSc1ccccc1C(=O)NC[C@H](O)COc(cc2)cc(c23)OCO3]
identified as active in FP-assay [2]: active
IC50 [2]: 13.6 ± 6.1 µM

SMILES: COc1ccccc1COC[C@@H](O)CN[C@H](C)c1cccc(S(N)(=O)=O)c1 [S3_E5, COc1ccccc1COC[C@@H](O)C[NH][C@H](C)c2cccc(c2)S(=O)(=O)N]
identified as active in FP-assay [2]: active
IC50 [2]: 26.7 ± 22.2 µM

Now from value to molecule, other results behind:

identified as active in FP-assay [1]: active
IC50 [1]: 62.4 ± 28.2 µM
SMILES: COc1cnc(CSc2nc(C)cc(C)n2)cc1OCC(N)=O [S5_M2, Cc(n1)cc(C)nc1SCc2cc(c(cn2)OC)OCC(=O)N]

IC50 [1]: 13.8 ± 14.9 µM
SMILES: Cn1c(CN2CCC(O)CC2)nnc1[C@H]1CCCN(Cc2ncc[nH]2)C1 [S5_M14, C1CC(O)CCN1Cc(n2C)nnc2[C@H]3CCCN(C3)Cc4[nH]cc[n]4]

identified as active in FP-assay [1]: active
IC50 [1]: 38.7 ± 13.7 µM
SMILES: O=C(O)C[C@@H](O)c1nc2ccccc2[nH]1 [S5_M1, [OH]C(=O)C[C@@H](O)c([nH]1)nc(c12)cccc2]

identified as active in ITC [3]: active
Kd [3]: 57.3 ± 11.9 µM
SMILES: CC(=O)N1CC[C@@H](NC(=O)c2cc3ccccc3cc2O)[C@H](O)C1 [S5N_M6, c1cccc(c12)cc(c(O)c2)C(=O)N[C@@H]3CCN(C(=O)C)C[C@H]3O]

identified as active in FP-assay [1]: active
IC50 [1]: 41.2 ± 10.5 µM
SMILES: Nc1nc(NCCc2cn3ccsc3n2)cc([C@H]2C[C@H](O)C2)n1 [S5_M8, s1ccn(c12)cc(n2)CCNc3cc(nc(n3)N)[C@@H]4C[C@H](C4)O]

Kd [3]: 268 ± 37.8 µM
SMILES: N[C@H]1C[C@@H](c2cc(N[C@H](CO)Cc3ccccc3)ncn2)C1 [S5N_M7, C1[C@H]([NH2])C[C@@H]1c(c2)ncnc2N[C@H](CO)Cc3ccccc3]
identified as weakly binding in ITC [3]: weakly binding (weakly binding (mean Kd is higher than 100 μM))

identified as active in ITC [3]: active
Kd [3]: 81.3 ± 12.7 µM
SMILES: O=C(NC[C@@]1(O)CCCNC1)Nc1cc(Cl)ccc1Cl [S5N_M4, Clc(c1)ccc(Cl)c1NC(=O)NC[C@@]2(O)CCC[NH]C2]

identified as active in FP-assay [1]: active
IC50 [1]: 42.6 ± 20.2 µM
SMILES: O=C(CCc1nc2ccccc2[nH]1)NCc1cc(-c2ccccc2)[nH]n1 [S5_M9, c1cccc(c12)[nH]c(n2)CCC(=O)NCc3n[nH]c(c3)-c4ccccc4]

identified as active in FP-assay [1]: active
SMILES: O=C(NCCc1cnccn1)[C@H]1CCCN(C2CCN(Cc3ccncc3)CC2)C1 [S5_M13, c1cnccc1CN(CC2)CCC2[N@@]3CCC[C@@H](C3)C(=O)NCCc4cnccn4]

IC50 [1]: 378 ± 108 µM
SMILES: Cc1c(CC(=O)N[C@H](CCCCNC(N)=O)C(=O)O)c(=O)oc2cc(O)ccc12 [S5_M6, c1cc(O)cc(c12)oc(=O)c(c2C)CC(=O)N[C@@H](C([OH])=O)CCCCNC(=O)N]
identified as weakly binding in FP-assay [1]: weakly binding (A weakly binding compound (mean IC50 value higher than 100 μM))

identified as active in ITC [3]: active
Kd [3]: 34.9 ± 4.29 µM
SMILES: C[C@@](O)(CNC(=O)NCc1cccc2ccccc12)c1ccc2c(c1)OCO2 [S5N_M2, c1cccc(c12)c(ccc2)CNC(=O)NC[C@@](C)(O)c(cc3)cc(c34)OCO4]

identified as active in FP-assay [1]: active
IC50 [1]: 16.2 ± 8.2 µM
SMILES: O=C(O)[C@@H](O)[C@@H](O)c1nc2ccccc2[nH]1 [S5_M7, [OH]C(=O)[C@@H](O)[C@@H](O)c([nH]1)nc(c12)cccc2]

Kd [3]: 484 ± 22.5 µM
SMILES: O=C(NCC[C@@H](O)c1ccc2c(c1)OCO2)C(=O)Nc1ccc(F)c(Cl)c1 [S5N_M1, Clc(c1)c(F)ccc1NC(=O)C(=O)NCC[C@@H](O)c(cc2)cc(c23)OCO3]
identified as weakly binding in ITC [3]: weakly binding (weakly binding (mean Kd is higher than 100 μM))
